Experimental data taken from patent US20230398130A1, “METHODS AND COMPOSITIONS FOR DIFFERENTIATING STEM CELLS” (Massachusetts Institute of Technology, priority 2020, published 2023).

What was measured:
ISC-enriched organoids [1] = assay: Primary screen, 384-well 2.5-D organoid differentiation (ENR+CD, 6 days): carbachol-induced lysozyme secretion (LYZ.S); format: cell-based, murine; settings: for Dose.FC.LYZ.S (log 2 fold change, carbachol-induced lysozyme secretion): vs plate median; for Dose.FC.LYZ.S: primary screen, ENR+CD 6 days, FC vs plate median
Text: (§1) High-throughput screening.

ISC-enriched organoids [2] = assay: Primary screen, 384-well 2.5-D organoid differentiation (ENR+CD, 6 days, Target Selective Inhibitor Library, vs whole-plate median): ATP (CellTiter-Glo 3D, CTG); settings: for Dose.FC.CTG (log 2 fold change, ATP): vs plate median; for Dose.FC.CTG / Z.CTG: primary screen; for Dose.FC.CTG: ENR+CD 6 days, FC vs plate median; for Z.CTG: standard z score of FC
ISC-enriched organoids [3] = assay: Primary screen, 384-well 2.5-D organoid differentiation (ENR+CD, 6 days): basal lysozyme secretion (LYZ.NS); format: cell-based, murine; settings: for Dose.FC.LYZ.NS (log 2 fold change, basal lysozyme secretion): vs plate median; for Dose.FC.LYZ.NS / Z.LYZ.NS: primary screen; for Dose.FC.LYZ.NS: ENR+CD 6 days, FC vs plate median; for Z.LYZ.NS: standard z score of FC
Text: as §1

[4] = dose 0.08 uM (1st of 4 lines per treatment; dose not printed in this part)
[5] = dose 0.40 uM (2nd of 4 lines per treatment; dose not printed in this part)
[6] = dose 2.00 uM (3rd of 4 lines per treatment; dose not printed in this part)
[7] = dose 10.00 uM (4th of 4 lines per treatment; dose not printed in this part)

Row | Compound | Dose.FC.LYZ.S (ISC-enriched organoids [1]; dose 0.08 uM) [log 2 fold change] | Dose.FC.LYZ.S (ISC-enriched organoids [1]; dose 0.40 uM) [log 2 fold change] | Dose.FC.LYZ.S (ISC-enriched organoids [1]; dose 2.00 uM) [log 2 fold change] | Dose.FC.LYZ.S (ISC-enriched organoids [1]; dose 10.00 uM) [log 2 fold change] | Dose.FC.CTG (ISC-enriched organoids [2]; dose 0.08 uM) [log 2 fold change] | Z.CTG (ISC-enriched organoids [2]; dose 0.08 uM) | Dose.FC.CTG (ISC-enriched organoids [2]; dose 0.40 uM) [log 2 fold change] | Z.CTG (ISC-enriched organoids [2]; dose 0.40 uM) | Dose.FC.CTG (ISC-enriched organoids [2]; dose 2.00 uM) [log 2 fold change] | Z.CTG (ISC-enriched organoids [2]; dose 2.00 uM) | Dose.FC.CTG (ISC-enriched organoids [2]; dose 10.00 uM) [log 2 fold change] | Z.CTG (ISC-enriched organoids [2]; dose 10.00 uM) | Dose.FC.LYZ.NS (ISC-enriched organoids [3]; dose 0.08 uM) [log 2 fold change] | Z.LYZ.NS (ISC-enriched organoids [3]; dose 0.08 uM) | Dose.FC.LYZ.NS (ISC-enriched organoids [3]; dose 0.40 uM) [log 2 fold change] | Z.LYZ.NS (ISC-enriched organoids [3]; dose 0.40 uM) | Dose.FC.LYZ.NS (ISC-enriched organoids [3]; dose 2.00 uM) [log 2 fold change] | Z.LYZ.NS (ISC-enriched organoids [3]; dose 2.00 uM) | Dose.FC.LYZ.NS (ISC-enriched organoids [3]; dose 10.00 uM) [log 2 fold change] | Z.LYZ.NS (ISC-enriched organoids [3]; dose 10.00 uM) | other results
1 | Cl.Cl.Cl.O[C@@H](COc1cccc2ncccc12)CN1CCN([C@@H]2c3ccccc3[C@@H]3[C@H](c4ccccc42)C3(F)F)CC1 [Zosuquidar (LY335979) 3HCl] | – | – | – | – | – | – | – | – | – | – | – | – | – | – | – | – | – | – | – | – | Dose.FC.LYZ.S (log 2 fold change, carbachol-induced lysozyme secretion) (ISC-enriched organoids [1]; dose 0.08 uM): 0.124; Dose.FC.LYZ.S (log 2 fold change, carbachol-induced lysozyme secretion) (ISC-enriched organoids [1]; dose 0.40 uM): 0.127; Dose.FC.LYZ.S (log 2 fold change, carbachol-induced lysozyme secretion) (ISC-enriched organoids [1]; dose 2.00 uM): 0.129; Dose.FC.LYZ.S (log 2 fold change, carbachol-induced lysozyme secretion) (ISC-enriched organoids [1]; dose 10.00 uM): −0.200; Z.CTG (standard z score) (ISC-enriched organoids [2]; dose 0.08 uM): 0.041; Dose.FC.CTG (log 2 fold change, ATP) (ISC-enriched organoids [2]; dose 0.08 uM): 0.017; Z.CTG (standard z score) (ISC-enriched organoids [2]; dose 0.40 uM): 0.470; Dose.FC.CTG (log 2 fold change, ATP) (ISC-enriched organoids [2]; dose 0.40 uM): 0.197; Z.CTG (standard z score) (ISC-enriched organoids [2]; dose 2.00 uM): 0.659; Dose.FC.CTG (log 2 fold change, ATP) (ISC-enriched organoids [2]; dose 2.00 uM): 0.276; Z.CTG (standard z score) (ISC-enriched organoids [2]; dose 10.00 uM): −0.461; Dose.FC.CTG (log 2 fold change, ATP) (ISC-enriched organoids [2]; dose 10.00 uM): −0.193; Z.LYZ.NS (standard z score) (ISC-enriched organoids [3]; dose 0.08 uM): 0.839; Dose.FC.LYZ.NS (log 2 fold change, basal lysozyme secretion) (ISC-enriched organoids [3]; dose 0.08 uM): 0.096; Z.LYZ.NS (standard z score) (ISC-enriched organoids [3]; dose 0.40 uM): 0.696; Dose.FC.LYZ.NS (log 2 fold change, basal lysozyme secretion) (ISC-enriched organoids [3]; dose 0.40 uM): 0.080; Z.LYZ.NS (standard z score) (ISC-enriched organoids [3]; dose 2.00 uM): 1.802; Dose.FC.LYZ.NS (log 2 fold change, basal lysozyme secretion) (ISC-enriched organoids [3]; dose 2.00 uM): 0.207; Z.LYZ.NS (standard z score) (ISC-enriched organoids [3]; dose 10.00 uM): −1.821; Dose.FC.LYZ.NS (log 2 fold change, basal lysozyme secretion) (ISC-enriched organoids [3]; dose 10.00 uM): −0.209
2 | (−)-MK 801 Maleate | 0.015 | −0.179 | −0.334 | −0.403 | 0.127 | 0.303 | −0.377 | −0.899 | −0.702 | −1.677 | −0.936 | −2.236 | 0.008 | 0.072 | −0.099 | −0.864 | −0.256 | −2.227 | −0.259 | −2.255 | SSMD.LYZ.S_Rep (strictly standardized mean difference) (ISC-enriched organoids [1]; [4]): 0.116; Z.LYZ.S (standard z score) (ISC-enriched organoids [1]; [4]): 0.099; SSMD.LYZ.S_Rep (strictly standardized mean difference) (ISC-enriched organoids [1]; [5]): −0.976; Z.LYZ.S (standard z score) (ISC-enriched organoids [1]; [5]): −1.159; SSMD.LYZ.S_Rep (strictly standardized mean difference) (ISC-enriched organoids [1]; [6]): −1.187; Z.LYZ.S (standard z score) (ISC-enriched organoids [1]; [6]): −2.160; SSMD.LYZ.S_Rep (strictly standardized mean difference) (ISC-enriched organoids [1]; [7]): −1.768; Z.LYZ.S (standard z score) (ISC-enriched organoids [1]; [7]): −2.604; SSMD.CTG_Rep (strictly standardized mean difference) (ISC-enriched organoids [2]; [4]): 0.442; SSMD.CTG_Rep (strictly standardized mean difference) (ISC-enriched organoids [2]; [5]): −1.342; SSMD.CTG_Rep (strictly standardized mean difference) (ISC-enriched organoids [2]; [6]): −1.102; SSMD.CTG_Rep (strictly standardized mean difference) (ISC-enriched organoids [2]; [7]): −1.696; SSMD.LYZ.NS_Rep (strictly standardized mean difference) (ISC-enriched organoids [3]; [4]): 0.070; SSMD.LYZ.NS_Rep (strictly standardized mean difference) (ISC-enriched organoids [3]; [5]): −0.550; SSMD.LYZ.NS_Rep (strictly standardized mean difference) (ISC-enriched organoids [3]; [6]): −1.315; SSMD.LYZ.NS_Rep (strictly standardized mean difference) (ISC-enriched organoids [3]; [7]): −1.708
3 | BAM7 | 0.079 | 0.039 | 0.019 | −0.020 | 0.209 | 0.498 | −0.010 | −0.024 | −0.156 | −0.373 | −0.114 | −0.272 | 0.045 | 0.391 | −0.009 | −0.082 | 0.057 | 0.498 | −0.007 | −0.063 | –
